From patent US20220409570A1, “COMPOSITION OF N-PALMITOYL-ETHANOLAMIDE AND BAICALEIN IN CO-MICRONIZED FORM” (EPITECH GROUP S.P.A., priority 2021, published 2022)

Assays:
Format in all cases: in vivo, Male Sprangue Dawley rats
PSA = assay: Western blot of PSA in prostate tissue of BPH rats; conditions: per os daily for 14 days, co-micronized PEA-Baicalein 10 mg/kg, um-PEA 9 mg/kg, Baicalein 1 mg/kg, vs BPH+vehicle, FIG. 2D
Excerpt: (§1) Male Sprangue Dawley rats (200-250 gr, Envigo, Italy) fed ad libitum and housed in cages with controlled sleep/wake cycle were used for the in vivo experimentation. Before the start of the experimentation, the animals were subjected to an acclimatization period of one week considering all the experimental procedures and protocols, compliant with the principles of care and welfare of laboratory animals approved by the Italian Ministry of Health and European directives (Italian Legislative Decree 2014/26 and EU Directive 2010/63) and by the OPBA of the University of Messina. […]
(§2) The animals were euthanized 14 days after the start of the experimentation. […] Specifically, the DHT levels were analyzed in the plasma samples with the commercially available Enzyme-linked Immunosorbent Assay (ELISA) (My BioSource). The samples were dosed with the microplate reader and the absorbance was read spectrophotometrically at 450 nm. […] The protein expression was quantified by densitometry (BIORAD ChemiDoc™ XRS+software) and normalized to the housekeeping gene β-actin.

Bcl-2 = assay: Western blot of anti-apoptotic factor Bcl-2 in prostate tissue of BPH rats; conditions: per os daily for 14 days, co-micronized PEA-Baicalein 10 mg/kg, um-PEA 9 mg/kg, Baicalein 1 mg/kg, vs BPH+vehicle, FIG. 3B
Excerpt: as §1, §2

DHT = assay: Serum DHT levels (ELISA) in rats with testosterone propionate-induced BPH; conditions: per os daily for 14 days, co-micronized PEA-Baicalein 10 mg/kg (9:1), um-PEA 9 mg/kg, Baicalein 1 mg/kg, vs BPH+vehicle, FIG. 2A
Excerpt: as §1, §2

Bax = assay: Western blot of pro-apoptotic factor Bax in prostate tissue of BPH rats; conditions: per os daily for 14 days, co-micronized PEA-Baicalein 10 mg/kg, um-PEA 9 mg/kg, Baicalein 1 mg/kg, vs BPH+vehicle, FIG. 3C
Excerpt: as §1, §2

5α-red 2 = assay: Western blot of 5α-red 2 in prostate tissue of BPH rats; conditions: per os daily for 14 days, co-micronized PEA-Baicalein 10 mg/kg, um-PEA 9 mg/kg, Baicalein 1 mg/kg, normalized to β-actin, FIG. 2B
Excerpt: as §1, §2

AR = assay: Western blot of AR in prostate tissue of BPH rats; conditions: per os daily for 14 days, co-micronized PEA-Baicalein 10 mg/kg, um-PEA 9 mg/kg, Baicalein 1 mg/kg, vs BPH+vehicle, FIG. 2C
Excerpt: as §1, §2

[1] = tested on: testosterone propionate-induced BPH (Benign Prostatic Hyperplasia); assay: Weight of the prostate in BPH rats; conditions: per os daily for 14 days, co-micronized PEA-Baicalein 10 mg/kg, um-PEA 9 mg/kg, FIG. 3A
Excerpt: as §1, §2

O=c1cc(-c2ccccc2)oc2cc(O)c(O)c(O)c12 [Baicalein, 5,6,7-trihydroxyflavone]
Expression (tissue levels) of PSA (WB densitometry) (PSA): did not bring significant changes
Levels of the anti-apoptotic factor Bcl-2 (WB densitometry) (Bcl-2): did not show a statistically significant change
Serum levels of DHT (DHT): markedly elevated
Expression of the pro-apoptotic factor Bax (WB densitometry) (Bax): did not show a statistically significant change
Expression of the 5α-red 2 protein in prostate tissue (WB densitometry) (5α-red 2): not capable of reducing the expression of such an enzyme
Expression (tissue levels) of AR (WB densitometry) (AR): did not bring significant changes

CCCCCCCCCCCCCCCC(=O)NCCO [um-PEA, Palmitoylethanolamide]
Weight of the prostate [1]: progressive decrease in prostate weight
Expression (tissue levels) of PSA (WB densitometry) (PSA): significantly greater and clearer effect, with respect to um-PEA alone
Levels of the anti-apoptotic factor Bcl-2 (WB densitometry) (Bcl-2): decidedly minor effect and with lower statistical significance
Serum levels of DHT (DHT): more than the um-PEA (9 mg/kg), significantly reduces serum DHT
Expression of the pro-apoptotic factor Bax (WB densitometry) (Bax): decidedly minor effect and with lower statistical significance
Expression of the 5α-red 2 protein in prostate tissue (WB densitometry) (5α-red 2): more than the um-PEA alone at 9 mg/kg, significantly reduces the expression of the enzyme 5α-red 2
